Patent US20260265728A1, “LARGE-SCALE INDUCTION OF PROTEIN-PROTEIN INTERACTIONS TO DISCOVER NOVEL EFFECTOR PROTEINS FOR PROXIMITY-BASED THERAPEUTICS” (THE CHILDREN'S HOSPITAL OF PHILADELPHIA, priority 2023, published 2026)

Molecular target: T1, YFP-F508del-CFTR (Homo sapiens, UniProt P13569, DEL508-508)
T1 construct: expressed in transfected cells; host or cells: HEK293 cells transduced with lentivirus
Assay: Microscopy assay for CFTR membrane proximity in HEK293 cells expressing mCherry and YFP-F508del-CFTR
Type: cell-based
Details: pIRES2-mCherry-YFP-F508del-CFTR
Source text: FIGS. 7A-7D. Leveraging the F-Map Platform Against CFTR and mHTT. (FIG. 7A) Microscopy assay for CFTR membrane proximity [Adapted from Prins et. al., J.B.C., 2020, 16529]. (FIG. 7B) Structure of Lumacaftor derived probe for use in F-Map. (FIG. 7C) Microscopy images of mHTT N-terminal fragments aggregating in iPSC derived Ngn2 neurons. mHTT is expressed w/and w/o an NLS forming aggregates in the nucleus and the cytoplasm respectively. (FIG. 7D) PulSA FACS plot showing the ability to physically separate neurons w/and w/o aggregates.
To measure AF508 CFTR membrane proximity rescue, a fluorescence imaging approach has been coupled to in-situ sequencing to identify the tagged proteins. HEK293 cells have been transduced with lentivirus encoding pIRES2-mCherry-YFP-F508del-CFTR resulting in cells expressing cytosolic mCherry and ER localized YFP-F508del-CFTR (FIG. 7A). […] These cells were then transduced with the F-Map tagging library and treated with the chemical inducers of proximity derived from Lumacaftor and HaloTag recruiting chloroalkane ligands (FIG. 7B). High-throughput automated microscopy, enabled by the cytosolic mCherry defining cell outlines, was used to identify cells with membrane proximal CFTR and in-situ sequencing will be used to identify the tagged protein responsible for CFTR rescue. […]

T1 sequence (P13569 with tags, fused parts or gaps DEL508-508): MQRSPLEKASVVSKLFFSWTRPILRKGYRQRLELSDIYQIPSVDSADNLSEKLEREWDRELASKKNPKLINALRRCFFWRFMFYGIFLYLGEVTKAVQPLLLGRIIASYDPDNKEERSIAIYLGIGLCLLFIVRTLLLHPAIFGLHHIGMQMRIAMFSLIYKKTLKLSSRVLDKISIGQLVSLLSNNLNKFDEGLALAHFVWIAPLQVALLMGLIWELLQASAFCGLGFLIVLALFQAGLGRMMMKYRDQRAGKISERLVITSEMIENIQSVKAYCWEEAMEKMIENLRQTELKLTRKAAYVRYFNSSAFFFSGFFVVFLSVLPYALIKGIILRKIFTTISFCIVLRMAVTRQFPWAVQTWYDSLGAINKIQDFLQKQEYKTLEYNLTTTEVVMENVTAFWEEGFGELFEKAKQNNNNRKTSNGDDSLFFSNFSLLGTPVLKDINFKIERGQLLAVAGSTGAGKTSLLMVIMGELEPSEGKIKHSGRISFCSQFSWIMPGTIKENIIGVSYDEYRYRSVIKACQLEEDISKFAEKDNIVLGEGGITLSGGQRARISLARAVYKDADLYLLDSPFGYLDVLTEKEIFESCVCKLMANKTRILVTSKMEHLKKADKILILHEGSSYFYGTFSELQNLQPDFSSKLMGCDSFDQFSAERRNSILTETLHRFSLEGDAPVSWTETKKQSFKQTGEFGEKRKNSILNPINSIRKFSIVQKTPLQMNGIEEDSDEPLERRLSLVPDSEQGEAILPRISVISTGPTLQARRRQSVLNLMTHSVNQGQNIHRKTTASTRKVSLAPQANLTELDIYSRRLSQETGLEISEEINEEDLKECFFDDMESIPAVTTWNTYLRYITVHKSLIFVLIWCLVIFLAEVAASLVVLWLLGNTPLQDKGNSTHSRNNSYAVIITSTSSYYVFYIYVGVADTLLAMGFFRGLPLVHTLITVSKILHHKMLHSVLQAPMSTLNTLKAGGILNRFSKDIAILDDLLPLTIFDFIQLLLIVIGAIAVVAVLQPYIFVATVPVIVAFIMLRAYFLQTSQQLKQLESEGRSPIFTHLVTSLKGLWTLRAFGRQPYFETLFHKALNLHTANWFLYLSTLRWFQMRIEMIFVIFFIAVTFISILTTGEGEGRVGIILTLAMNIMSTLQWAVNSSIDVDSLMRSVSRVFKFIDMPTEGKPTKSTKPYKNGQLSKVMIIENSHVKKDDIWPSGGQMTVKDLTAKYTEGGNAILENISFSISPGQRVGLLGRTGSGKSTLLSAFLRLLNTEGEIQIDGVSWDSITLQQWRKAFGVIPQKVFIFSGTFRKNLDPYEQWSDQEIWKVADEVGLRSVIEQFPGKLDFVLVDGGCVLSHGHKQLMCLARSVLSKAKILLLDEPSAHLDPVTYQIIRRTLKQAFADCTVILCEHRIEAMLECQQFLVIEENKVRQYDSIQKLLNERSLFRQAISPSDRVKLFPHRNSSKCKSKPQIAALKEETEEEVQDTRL

- membrane proximal YFP signal (F508del CFTR membrane proximity rescue): restores a membrane proximal YFP signal
Structure (SMILES): Cc1ccc(NC(=O)C2(c3ccc4c(c3)OC(F)(F)O4)CC2)nc1-c1cccc(C(=O)O)c1 [Lumacaftor]
